Reference: patent US20060148829A1, “Means for inducing differentiation of supernumerary hair cells and deiters' cells in the developing organ of corti” (priority 2002, published 2006)
Starred links: 1 amine or outer side, 2 acyl side, 3 side chain; linkers in the order of their positions; H or OH if unused. Positions of bridges follow the written chain, without caps; N, C: chain ends. Non-standard residues stand in square brackets, D forms with d. Residues, ends and D or L forms follow the SMILES beside them. Chains are numbered I, II in the order given. Actinocin(9to1) = Cc1c2oc3c(C)ccc(C(=O)[*:1])c3nc-2c(C(=O)[*:2])c(N)c1=O; NMeV = CN[C@H](C(=O)O)C(C)C; Sar = CNCC(=O)O

Key:
[1] = test system: rat organ of Corti explants; assay: Induction of supernumerary hair cells (HCs) in cultured organ of Corti explants; settings: for Induction of supernumerary HCs (in words): E19 rat organ of Corti explants, 5 days in culture; for Concentration inducing maximum supernumerary HCs differentiation: isolated organs of Corti, lowest concentration inducing maximum effect, for inactive compounds highest concentration tested 100 :M
Description: Time-pregnant Sprague-Dawley rats or neonates were killed by euthanasia on gestational days 17 (E17), E19, or on postnatal days 0 (day of birth=P0), P2 and P4 with CO2. Both cochleae were dissected free from the calvaria with watchmaker forceps and under a stereomicroscope. Each organ of Corti was freed from surrounding tissues and explanted intact onto the surface of a sterile membrane (Mllicellm, 12 mm, Millipore, Bedford, Mass., USA) in minimum essential medium (MEM; Gibco, Gent, Belgium) into a 24-well culture plate (Nunc). Cultures were incubated at 37° C. in a humidified atmosphere of 95% air and 5% CO2. Medium was renewed every 2 days.
Organs of Corti were dissected from E19 rats and maintained in culture. […] For each condition, the explants were fixed and the supernumerary zones were counted after myosin VIIa immunostaining.
Quantitative analysis of supernumerary HCs production was obtained by counting the number of HCs per length and surface of sensory epithelium regions from the medium turn as previously described (5). If supernumerary cells were actually produced, the number of cells per unit of length should increase while the number of cells per surface unit should remain at the same level. […] The total length of each organ of Corti explant was measured and the extent of the region with supernumerary HCs was expressed as percent of total length. These supernumerary regions were defined by the presence of more than four rows of HCs.

CDK1/cyclin B = settings: Knockaert et al, 2002b; cited from earlier work
[2] = test system: E19 explants of organ of Corti; assay: BrdU labelling of cell proliferation in organ of Corti explants; type: cell-based, rat
Experimental: Immunohistochemistry, immunocytochemistry and confocal microscopy were carried out as previously described (4;5). Whole-mount preparations or cryostat sections (10-20 :m) were fixed with either 4% paraformaldehyde (10 min. at 20° C.) or methanol (5 min. at −20° C.). Primary antibodies incubations were performed overnight at 4° C. Preparations were washed three times in PBS before incubating with a secondary antibody conjugated to alexa488, alexa568 or TRITC fluorophore for 1 hour at 20° C. Sequential double labeling experiments were done with a 4% paraformaldehyde fixation step in between each immunoreaction. Preparations were mounted on microscope slides and coverslipped with Fluoprep mounting medium (BioMérieux, Marcy l'Etoile, France) and imaged using a Bio-Rad MRC1024 laser scanning confocal microscope. To label cells in S phase in vitro, BrdU (10 :M, Sigma, USA) which is incorporated into replicating DNA, was added to the cultures for 2 or 5DIV prior staining.

[3] = test system: E19 rat organ of Corti explants; assay: TUNEL labelling of apoptosis in organ of Corti explants; type: cell-based; settings: 10 :M, after 1, 2 or 5 DIV
Description: The apoptosis in E19 rat organ of Corti explants was looked for by staining the specimens cultured for 1, 2 or 5DIV with the terminal deoxynudeotidyl transferase-mediated dUTP nick-end labelling (TUNEL) method using the ApopTag fluorescent detection kit (Oncor, Gaitherburg, Md.) as previously described (6).

[4] = test system: mouse organs of Corti (Math1 genotypes); assay: Roscovitine-induced HCs in organs of Corti of wild type, Math1-null and heterozygote mice; type: cell-based; settings: 5DIV
Experimental: Math1 knockout mice were generated by replacing the Math1 open reading frame (ORF) with the selectable marker PGKhprt as previously described by Ben-Arie et al.(l). Math1^∃^gal/^∃^-gal knock-in mice were generated by replacing the Math1 ORF with a ∃-galactosidase (∃-gal) reporter gene so that ∃-gal is expressed in all cells that express Math1 (2).
Whole-mount lacZ staining was carried out on cultured E15.5 organ of Corti explants as previously described (2;3). After 5DIV, explants were fixed in 4% paraformaldehyde for 20 minutes, washed thoroughly in PBS and equilibrate in X-gal staining buffer (5 mM potassium ferricyanide, 5 mM potassium ferrocyanide, 0.02% NP40, and 0.01% sodium deoxycholate). Explants were stained overnight in X-gal buffer with X-gal (1 mg/ml) then post-fixed in 4% paraformaldehyde. Genotyping of tail DNA was performed using Southern analysis of EcoRI digested DNA and probes as previously described (1).

[5] = Administration to patients suffering of deafness; type: in vivo; settings: regularly administered

Molecule | Induction of supernumerary HCs (in words) [1] | Concentration inducing maximum supernumerary HCs differentiation [1] | other results
CC(C)[C@H](CO)Nc1nc(N(C)c2cc(N)cc(Cl)c2)c2ncn(C(C)C)c2n1 [6-methyl-aminopurvalanol, N6-methyl-aminopurvalanol] | no effect | no effect | 
Cc1c2oc3c(C)ccc(C(=O)N[C@@H]4C(=O)N[C@H](C(C)C)C(=O)N5CCC[C@H]5C(=O)N(C)CC(=O)N(C)[C@@H](C(C)C)C(=O)O[C@@H]4C)c3nc-2c(C(=O)N[C@@H]2C(=O)N[C@H](C(C)C)C(=O)N3CCC[C@H]3C(=O)N(C)CC(=O)N(C)[C@@H](C(C)C)C(=O)O[C@@H]2C)c(N)c1=O [Actinomycin D, actinomycin D] (I: T[dV]P[Sar][NMeV] / II: T[dV]P[Sar][NMeV]; ester I:1-I:C, II:1-II:C; linker I:N-II:N via Actinocin(9to1)) | able to induce supernumerary HCs | 0.0001 :M | 
OC[C@H]1O[C@@H](n2cnc3cc(Cl)c(Cl)cc32)[C@H](O)[C@@H]1O [DRB, 6-dichloro-1-beta-D-ribobenzimidazole] | able to induce supernumerary HCs | 0.01 :M | 
N#CC(=C(/N)Sc1ccccc1N)/C(C#N)=C(\N)Sc1ccccc1N [U0126] | did not induce supernumerary HCs | no effect | CDK1 inhibition (IC50) (CDK1/cyclin B): no effect
O=C1Cc2c([nH]c3ccc([N+](=O)[O-])cc23)-c2ccccc2N1 [alsterpaullone] | induced the appearance of supernumerary HCs | 5 :M | 
CC(C)[C@H](CO)Nc1nc(Nc2cc(N)cc(Cl)c2)c2ncn(C(C)C)c2n1 [aminopurvalanol] |  | 5 :M | 
O=C1c2ccccc2-[n+]2ccc3c([nH]c4ccccc43)c21 [fascaplysin] | no effect | no effect | CDK1 inhibition (IC50) (CDK1/cyclin B): no effect
Cn1cnc2nc(NCCO)nc(NCc3ccccc3)c21 [iso-olomoucine] | no effect | no effect | 
Cn1cnc2c(NCc3ccccc3)nc(NCCO)nc21 [olomoucine] |  | 30 :M | 
CC[C@H](CO)Nc1nc(NCc2ccccc2)c2ncn(C(C)C)c2n1 [roscovitine] | higher number of supernumerary HCs and corresponding SCs | 10 :M | Developmental stage dependence of induction of supernumerary HCs ([1]; 10 :M, 5 days of culture, stages E17 to P4): culminated at E17, sightly decreased at E19 and disappeared at P0; Toxicity for cells in the organ of Corti ([1]; 30 and 100 :M): toxic for all cells in the organ of Corti; Time in culture for maximal effect on length of supernumerary zones ([1]; E19 rat explants, 10 :M): 5 DIV; Supernumerary segments as percent of the total length of the explants ([1]; E19 rat explants, 10 :M, 5DIV, mean, S.D., n=4 independent experiments): 52.9%; Time in culture for effect on length of supernumerary zones ([1]; E19 rat explants, 10 :M, significant effect): 4 DIV; Density of HCs per surface unit vs control explants ([1]; roscovitine-treated explants): remained identical to that of control explants; Rate of proliferation of mesenchymal cells in connective tissue ([2]; E19 explants, BrdU): higher in the absence of roscovitine; BrdU labelling of epithelial cells in the area of HCs and SCs ([2]; roscovitine-treated E19 explants, 10 :M BrdU, 2 or 5 DIV): No epithelial cells were labeled with BrdU; TUNEL positive nuclei [3]: no TUNEL positive nuclei were identified; Myosin VIIA positive supernumerary HCs, wild type mice ([4]; E15 or E18 wild type mice): myosin VIIA immunopositive supernumerary HCs, (FIG. 9A) were observed; Supernumerary HCs, Math1 heterozygote mice ([4]; E15.5 Math1 +/beta-gal organs of Corti, 10 :M): supernumerary HCs were present; Myosin VIIA staining, Math1-null mutant mice ([4]; E15.5 Math1-null cochlea): absent; Clinical effect in patients suffering of deafness [5]: An improvement of their troubles was observed; Tolerability in patients suffering of deafness [5]: without any drawbacks
indirubin-3′-monoxime | induced the appearance of supernumerary HCs | 10 :M | 
